Measurements as given in article PMC10786919, “Design-rules for stapled peptides with in vivo activity and their application to Mdm2/X antagonists” (Nature Communications, 2024).
Read-outs that look alike come from different tables or passages of the source. Positions of bridges follow the written chain, without caps; N, C: chain ends. Non-standard residues stand in square brackets, D forms with d. Residues, ends and D or L forms follow the SMILES beside them. R8 = C=CCCCCCC[C@@](C)(N)C(=O)O; S5 = C=CCCC[C@](C)(N)C(=O)O; Ahx = NCCCCCC(=O)O

Experiments:
Assay type in all cases: cell-based
[1] = system: p53 responsive β-lactamase reporter in HCT116 cells; experiment: cells; conditions: read-out: p53 reporter assay EC50
Experimental: HCT116 cells were stably transfected with a p53 responsive β-lactamase reporter and expanded in McCoy’s 5 A Medium with 10% fetal bovine serum (FBS), Blasticidin, and Penicillin/Streptomycin and then transferred to 1.5 ml freezing vials and stored under liquid nitrogen in growth media containing 5% DMSO. […] The cells were then seeded into a 384-well plate at a density of 8000 cells per well. […] The final working concentration of DMSO was 0.5%. β-lactamase activity was detected using the ToxBLAzer Dual Screen (Invitrogen), as per the manufacturer’s instructions. Measurements were made using the Envision multiplate reader (Perkin–Elmer). […] Measurements were taken a minimum of three times (biological replicates) and values are reported as geometric means of the replicates.

[2] = Lactate dehydrogenase (LDH) release assay; conditions: LDH: Cytotoxicity assay EC50
Outline: (§1)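 Read-out was lactate dehydrogenase release, reflecting loss of membrane integrity, in reporter-engineered HCT116 cells (p53-responsive β-lactamase) seeded at 8000 cells per well. Final DMSO was 0.5%, and reported values are geometric means from three or more biological repeats.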

[3] = system: HCT116 cells; experiment: Lactate dehydrogenase (LDH) release assay
Outline: as §1

[4] = system: Jump-In T-REx CHO-K1 BLA cells; experiment: cells; conditions: for EC50: read-out: TETCHO: Counterscreen EC50
Experimental: This assay was based on Jump-In™ T-REx™ CHO-K1 BLA cells containing a stably integrated β-lactamase under the control of an inducible cytomegalovirus (CMV) promoter. Cells were maintained in Dulbecco’s […] Eagle Medium (DMEM) with 10% fetal bovine serum (FBS), Blasticidin, and Penicillin/Streptomycin and then transferred to 1.5 ml freezing vials and stored under liquid nitrogen in growth media containing 5% DMSO. […] Cells were seeded into a 384-well plate at a density of 4000 cells per well. Peptides were then dispensed to each well using a liquid handler, ECHO 555 and incubated for 16 h. The final working concentration of DMSO was 0.5%. β-lactamase activity was detected using the ToxBLAzer Dual Screen (Invitrogen), as per the manufacturer’s instructions. Measurements were carried out using the Envision multiplate reader (Perkin–Elmer). Counterscreen activity was defined as the amount of β-lactamase activity induced by tetracycline. Measurements were taken a minimum of three times (biological replicates) and values are reported as geometric means of the replicates.

SMILES: CC(=O)N[C@H](C(=O)N[C@@H](CO)C(=O)N[C@@H](Cc1ccccc1)C(=O)N[C@]1(C)CCCC=CCCCCCC[C@@](C)(C(N)=O)NC(=O)[C@H](CC(C)C)NC(=O)[C@H](CC(C)C)NC(=O)[C@H](C)NC(=O)[C@H](Cc2c[nH]c3ccccc23)NC(=O)[C@H](Cc2ccc(O)cc2)NC(=O)[C@H](CCC(=O)O)NC1=O)[C@@H](C)O [MP-035]
- EC50 ([1]; 0% FBS 4Hr): 8.8 µM
- EC50 [2]: > 50 µM
- LDH: Cytotoxicity assay % Effect [3]: 37.58%

SMILES: CC(=O)N[C@@H](CCCNC(=N)N)C(=O)N[C@@H](CCCNC(=N)N)C(=O)NCCCCCC(=O)N[C@H](C(=O)N[C@@H](CO)C(=O)N[C@@H](Cc1ccccc1)C(=O)N[C@]1(C)CCCCCCC=CCCC[C@@](C)(C(=O)N[C@@H](CCC(=O)O)C(=O)N[C@@H](CC(N)=O)C(=O)N[C@@H](Cc2ccccc2)C(N)=O)NC(=O)[C@H](CC(C)C)NC(=O)[C@H](CC(C)C)NC(=O)[C@H](C)NC(=O)[C@H](Cc2c[nH]c3ccccc23)NC(=O)[C@H](Cc2ccc(O)cc2)NC(=O)[C@H](CCC(=O)O)NC1=O)[C@@H](C)O [MP-037] (Ac-RR[Ahx]TSF[R8]EYWALL[S5]ENF-NH2; staple 7-14)
- EC50 ([1]; 0% FBS 4Hr): 20.2 µM
- EC50 [2]: > 50 µM
- LDH: Cytotoxicity assay % Effect [3]: 3.464%

SMILES: CC(=O)N[C@@H](CCCNC(=N)N)C(=O)NCCCCCC(=O)N[C@H](C(=O)N[C@@H](CO)C(=O)N[C@@H](Cc1ccccc1)C(=O)N[C@]1(C)CCCCCCC=CCCC[C@@](C)(C(=O)N[C@@H](CCC(=O)O)C(=O)N[C@@H](CC(N)=O)C(=O)N[C@@H](Cc2ccccc2)C(N)=O)NC(=O)[C@H](CC(C)C)NC(=O)[C@H](CC(C)C)NC(=O)[C@H](C)NC(=O)[C@H](Cc2c[nH]c3ccccc23)NC(=O)[C@H](Cc2ccc(O)cc2)NC(=O)[C@H](CCC(=O)O)NC1=O)[C@@H](C)O [MP-038]
- EC50 ([1]; 0% FBS 4Hr): 2.49 µM
- EC50 [2]: > 50 µM
- LDH: Cytotoxicity assay % Effect [3]: 5.515%

SMILES: CC(=O)N[C@@H](CCCCN)C(=O)N[C@@H](CCCCN)C(=O)NCCCCCC(=O)N[C@H](C(=O)N[C@@H](CO)C(=O)N[C@@H](CC(C)C)C(=O)N[C@]1(C)CCCCCCC=CCCC[C@@](C)(C(=O)N[C@@H](CCC(=O)O)C(=O)N[C@@H](CC(N)=O)C(=O)N[C@@H](Cc2ccccc2)C(N)=O)NC(=O)[C@H](Cc2c[nH]c3ccccc23)NC(=O)[C@H](CC(C)C)NC(=O)[C@H](C)NC(=O)[C@H](Cc2ccccc2)NC(=O)[C@H](Cc2ccc(O)cc2)NC(=O)[C@H](CCC(=O)O)NC1=O)[C@@H](C)O [MP-039] (Ac-KK[Ahx]TSL[R8]EYFALW[S5]ENF-NH2; staple 7-14)
- EC50 ([1]; 0% FBS 4Hr): > 50 µM
- EC50 [2]: > 50 µM
- LDH: Cytotoxicity assay % Effect [3]: 28.85%

SMILES: CC(=O)N[C@H](C(=O)N[C@@H](CO)C(=O)N[C@@H](Cc1ccccc1)C(=O)N[C@]1(C)CCCCCCC=CCCC[C@@](C)(C(=O)N[C@@H](CCC(N)=O)C(=O)N[C@@H](CC(N)=O)C(=O)N[C@@H](Cc2ccccc2)C(N)=O)NC(=O)[C@H](CC(C)C)NC(=O)[C@H](CC(C)C)NC(=O)[C@H](C)NC(=O)[C@H](Cc2c[nH]c3ccccc23)NC(=O)[C@H](Cc2ccc(O)cc2)NC(=O)[C@H](CCC(=O)O)NC1=O)[C@@H](C)O [MP-2026]
- EC50 ([1]; 0% FBS 4Hr): 0.98 µM
- EC50 [2]: > 50 µM
- LDH: Cytotoxicity assay % Effect [3]: 23.2%

SMILES: CC(=O)N1CCC[C@H]1C(=O)N[C@@H](CCCNC(=N)N)C(=O)N[C@@H](Cc1ccccc1)C(=O)N[C@]1(C)CCCCCCC=CCCC[C@@](C)(C(=O)N[C@@H](CCC(=O)O)C(N)=O)NC(=O)[C@H](CC(C)C)NC(=O)[C@H](CCCNC(=N)N)NC(=O)[C@H](Cc2ccc(O)cc2)NC(=O)[C@H](Cc2c[nH]c3ccccc23)NC(=O)[C@H](Cc2ccc(O)cc2)NC(=O)[C@H](CCC(=O)O)NC1=O [MP-2030] (Ac-PRF[R8]EYWYRL[S5]E-NH2; staple 4-11)
- EC50 ([1]; 0% FBS 4Hr): 6.62 µM
- EC50 [2]: > 50 µM
- LDH: Cytotoxicity assay % Effect [3]: 32.25%

SMILES: CC(=O)N1CCC[C@H]1C(=O)N[C@@H](CCCNC(=N)N)C(=O)N[C@@H](Cc1ccccc1)C(=O)N[C@]1(C)CCCCCCC=CCCC[C@@](C)(C(N)=O)NC(=O)[C@H](CC(C)C)NC(=O)[C@H](CCCNC(=N)N)NC(=O)[C@H](Cc2ccc(O)cc2)NC(=O)[C@H](Cc2c[nH]c3ccccc23)NC(=O)[C@H](Cc2ccc(O)cc2)NC(=O)[C@H](CCC(=O)O)NC1=O [MP-2032] (Ac-PRF[R8]EYWYRL[S5]-NH2; staple 4-11)
- EC50 ([1]; 0% FBS 4Hr): 25.7 µM
- EC50 [2]: > 50 µM
- LDH: Cytotoxicity assay % Effect [3]: -1.239%

SMILES: CC(=O)N[C@H](C(=O)N[C@@H](CO)C(=O)N[C@@H](CC(C)C)C(=O)N[C@]1(C)CCCCCCC=CCCC[C@@](C)(C(N)=O)NC(=O)[C@H](Cc2c[nH]c3ccccc23)NC(=O)[C@H](CC(C)C)NC(=O)[C@H](C)NC(=O)[C@H](Cc2ccccc2)NC(=O)[C@H](Cc2ccc(O)cc2)NC(=O)[C@H](CCC(=O)O)NC1=O)[C@@H](C)O [MP-2040] (Ac-TSL[R8]EYFALW[S5]-NH2; staple 4-11)
- EC50 ([1]; 0% FBS 4Hr): 7.46 µM
- EC50 [2]: > 50 µM
- LDH: Cytotoxicity assay % Effect [3]: 24.89%

SMILES: CC(=O)N[C@@H](CCCCN)C(=O)N[C@@H](CC(C)C)C(=O)N[C@@H](C)C(=O)N[C@@H](CCCCN)C(=O)NCCCCCC(=O)N[C@H](C(=O)N[C@@H](CO)C(=O)N[C@@H](Cc1ccccc1)C(=O)N[C@]1(C)CCCCCCC=CCCC[C@@](C)(C(=O)N[C@@H](CCC(=O)O)C(=O)N[C@@H](CC(N)=O)C(=O)N[C@@H](Cc2ccccc2)C(N)=O)NC(=O)[C@H](CC(C)C)NC(=O)[C@H](CC(C)C)NC(=O)[C@H](C)NC(=O)[C@H](Cc2c[nH]c3ccccc23)NC(=O)[C@H](Cc2ccc(O)cc2)NC(=O)[C@H](CCC(=O)O)NC1=O)[C@@H](C)O [MP-2041] (Ac-KLAK[Ahx]TSF[R8]EYWALL[S5]ENF-NH2; staple 9-16)
- EC50 ([1]; 0% FBS 4Hr): 6.06 µM
- EC50 [2]: > 50 µM
- LDH: Cytotoxicity assay % Effect [3]: 5.898%

SMILES: CC(=O)N[C@@H](CCCCN)C(=O)N[C@@H](CCCCN)C(=O)NCCCCCC(=O)N[C@H](C(=O)N[C@@H](CO)C(=O)N[C@@H](Cc1ccccc1)C(=O)N[C@]1(C)CCCCCCC=CCCC[C@@](C)(C(=O)N[C@@H](CCC(=O)O)C(=O)N[C@@H](CC(N)=O)C(=O)N[C@@H](Cc2ccccc2)C(N)=O)NC(=O)[C@H](CC(C)C)NC(=O)[C@H](CC(C)C)NC(=O)[C@H](C)NC(=O)[C@H](Cc2c[nH]c3ccccc23)NC(=O)[C@H](Cc2ccc(O)cc2)NC(=O)[C@H](CCC(=O)O)NC1=O)[C@@H](C)O [MP-5363] (Ac-KK[Ahx]TSF[R8]EYWALL[S5]ENF-NH2; staple 7-14)
- EC50 ([1]; 0% FBS 4Hr): 3.42 µM
- EC50 ([1]; 0% FBS 16Hr): 3.25 µM
- TETCHO: Counterscreen % Effect ([4]; 0% FBS 4Hr): 48.32%
- EC50 ([4]; 0% FBS 4Hr): > 50 µM
- TETCHO: Counterscreen % Effect ([4]; 0% FBS 16Hr): 4.17%

SMILES: CC(=O)N[C@@H](CCCCN)C(=O)NCCCCCC(=O)N[C@H](C(=O)N[C@@H](CO)C(=O)N[C@@H](Cc1ccccc1)C(=O)N[C@]1(C)CCCCCCC=CCCC[C@@](C)(C(=O)N[C@@H](CCC(=O)O)C(=O)N[C@@H](CC(N)=O)C(=O)N[C@@H](Cc2ccccc2)C(N)=O)NC(=O)[C@H](CC(C)C)NC(=O)[C@H](CC(C)C)NC(=O)[C@H](C)NC(=O)[C@H](Cc2c[nH]c3ccccc23)NC(=O)[C@H](Cc2ccc(O)cc2)NC(=O)[C@H](CCC(=O)O)NC1=O)[C@@H](C)O [MP-5365]
- EC50 ([1]; 0% FBS 4Hr): 3.58 µM
- EC50 ([1]; 0% FBS 16Hr): 2.2 µM
- TETCHO: Counterscreen % Effect ([4]; 0% FBS 4Hr): 4.41%
- EC50 ([4]; 0% FBS 4Hr): > 50 µM
- TETCHO: Counterscreen % Effect ([4]; 0% FBS 16Hr): 1.46%
